# Measured values published in PMC4447944 (The Journal of Biological Chemistry, 2015).
# What was measured:
# [1] = molecular target: T1, hHIPK4 (Homo sapiens, UniProt Q8NE63); test: KINOMEscan; assay type: binding
# T1 construct: purchased DiscoverX
# [2] = molecular target: T2, hCAMKK1 (Homo sapiens, UniProt Q8N5S9); test: KINOMEscan; assay type: binding
# T2 construct: purchased DiscoverX
# [3] = molecular target: T3, hCAMK2D (Homo sapiens, UniProt Q13557); test: KINOMEscan; assay type: binding
# T3 construct: purchased DiscoverX
# [4] = molecular target: T4, hEPHB6 (Homo sapiens, UniProt O15197); test: KINOMEscan; assay type: binding
# T4 construct: purchased DiscoverX
# [5] = molecular target: T5, hRSK2(Kin.Dom.2-C-term) (Homo sapiens, UniProt P51812); test: KINOMEscan; assay type: binding
# T5 construct: hRSK2(Kin.Dom.2-C-term); purchased DiscoverX (KINOMEscan platform)
# [6] = molecular target: T6, hVDR (Homo sapiens, UniProt P11473); test: Nuclear hormone receptor assay (Eurofins-CEREP); conditions: read-out: Relative IC50
# T6 construct: Eurofins-CEREP
# [7] = molecular target: T7, hABL1(pY253F) (Homo sapiens, UniProt P00519, Y253F); test: KINOMEscan; assay type: binding
# T7 construct: purchased DiscoverX (KINOMEscan platform)
# [8] = molecular target: T8, hASK2 (Homo sapiens, UniProt O95382); test: KINOMEscan; assay type: binding
# T8 construct: purchased DiscoverX
# [9] = molecular target: T9, hFGFR3(G697C) (Homo sapiens, UniProt P22607, G697C); test: KINOMEscan; assay type: binding
# T9 construct: purchased DiscoverX
# [10] = molecular target: T10, hJNK2 (Homo sapiens, UniProt P45984); test: KINOMEscan; assay type: binding
# T10 construct: purchased DiscoverX (KINOMEscan panel)
# [11] = molecular target: hFXR (Homo sapiens, UniProt Q96RI1); test: Nuclear hormone receptor assay (Eurofins-CEREP)
# [12] = molecular target: T11, hKIT(L576P) (Homo sapiens, UniProt P10721, L576P); test: KINOMEscan; assay type: binding
# T11 construct: purchased DiscoverX (KINOMEscan panel)
# [13] = molecular target: T12, hABL1(F317I) (Homo sapiens, UniProt P00519, F317I); test: KINOMEscan; assay type: binding
# T12 construct: purchased DiscoverX (KINOMEscan platform)
# [14] = molecular target: T13, hVRK2 (Homo sapiens, UniProt Q86Y07); test: KINOMEscan; assay type: binding
# T13 construct: purchased DiscoverX
# [15] = molecular target: T14, CYP2D6 (Homo sapiens, UniProt P10635); test: Cytochrome p450 inhibition (Eurofins-CEREP); assay type: in vitro ADME
# T14 construct: Eurofins-CEREP
# [16] = molecular target: T15, hMEK2 (Homo sapiens, UniProt P36507); test: KINOMEscan; assay type: binding
# T15 construct: purchased DiscoverX
# [17] = molecular target: T16, hABL1(pF317L) (Homo sapiens, UniProt P00519, F317L); test: KINOMEscan; assay type: binding
# T16 construct: purchased DiscoverX (KINOMEscan platform)
# [18] = molecular target: T17, hSGK2 (Homo sapiens, UniProt Q9HBY8); test: KINOMEscan; assay type: binding
# T17 construct: purchased DiscoverX (KINOMEscan platform)
# [19] = molecular target: T18, hCLK1 (Homo sapiens, UniProt P49759); test: KINOMEscan; assay type: binding
# T18 construct: purchased DiscoverX
# [20] = molecular target: T19, hDCAMKL1 (Homo sapiens, UniProt O15075); test: KINOMEscan; assay type: binding
# T19 construct: purchased DiscoverX (KINOMEscan platform)
# [21] = molecular target: T20, hBRAF(V600E) (Homo sapiens, UniProt P15056, V600E); test: KINOMEscan; assay type: binding
# T20 construct: purchased DiscoverX
# [22] = molecular target: T21, hSRPK1 (Homo sapiens, UniProt Q96SB4); test: KINOMEscan; assay type: binding
# T21 construct: purchased DiscoverX (KINOMEscan platform)
# [23] = molecular target: T22, hIKK-alpha (Homo sapiens, UniProt O15111); test: KINOMEscan; assay type: binding
# T22 construct: purchased DiscoverX (KINOMEscan panel)
# [24] = molecular target: T23, hRXRα (Homo sapiens, UniProt P19793); test: Nuclear hormone receptor assay (Eurofins-CEREP); conditions: read-out: Relative IC50
# T23 construct: Eurofins-CEREP
# [25] = molecular target: T24, hZAK (Homo sapiens, UniProt Q9NYL2); test: KINOMEscan; assay type: binding
# T24 construct: purchased DiscoverX
# [26] = molecular target: T25, bacPKNB (Mycobacterium tuberculosis, UniProt P9WI81); test: KINOMEscan; assay type: binding
# T25 construct: purchased DiscoverX
# [27] = molecular target: T26, hRSK2(Kin.Dom.1-N-term) (Homo sapiens, UniProt P51812); test: KINOMEscan; assay type: binding
# T26 construct: hRSK2(Kin.Dom.1-N-term); purchased DiscoverX (KINOMEscan platform)
# [28] = molecular target: T27, hRARβ (Homo sapiens, UniProt P10826); test: Nuclear hormone receptor assay (Eurofins-CEREP); conditions: read-out: Relative IC50
# T27 construct: Eurofins-CEREP
# [29] = molecular target: T28, hMKK7 (Homo sapiens, UniProt O14733); test: KINOMEscan; assay type: binding
# T28 construct: purchased DiscoverX
# [30] = molecular target: T29, hCAMKK2 (Homo sapiens, UniProt Q96RR4); test: KINOMEscan; assay type: binding
# T29 construct: purchased DiscoverX
# [31] = molecular target: T30, hFRK (Homo sapiens, UniProt P42685); test: KINOMEscan; assay type: binding
# T30 construct: purchased DiscoverX
# T30 sequence (P42685 whole entry): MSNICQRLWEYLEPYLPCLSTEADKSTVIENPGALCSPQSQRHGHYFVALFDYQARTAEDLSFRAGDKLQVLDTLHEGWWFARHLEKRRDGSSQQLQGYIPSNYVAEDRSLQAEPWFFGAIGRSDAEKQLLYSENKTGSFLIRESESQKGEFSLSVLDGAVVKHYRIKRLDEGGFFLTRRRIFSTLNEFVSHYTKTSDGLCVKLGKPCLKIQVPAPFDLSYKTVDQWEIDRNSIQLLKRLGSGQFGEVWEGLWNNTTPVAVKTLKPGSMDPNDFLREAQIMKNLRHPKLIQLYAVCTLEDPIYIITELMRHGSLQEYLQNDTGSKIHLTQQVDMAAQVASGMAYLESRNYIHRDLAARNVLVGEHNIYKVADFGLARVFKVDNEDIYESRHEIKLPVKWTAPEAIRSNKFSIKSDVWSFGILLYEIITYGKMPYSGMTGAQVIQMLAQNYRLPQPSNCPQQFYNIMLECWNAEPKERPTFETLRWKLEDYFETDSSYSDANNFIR
# T2 sequence (Q8N5S9 whole entry): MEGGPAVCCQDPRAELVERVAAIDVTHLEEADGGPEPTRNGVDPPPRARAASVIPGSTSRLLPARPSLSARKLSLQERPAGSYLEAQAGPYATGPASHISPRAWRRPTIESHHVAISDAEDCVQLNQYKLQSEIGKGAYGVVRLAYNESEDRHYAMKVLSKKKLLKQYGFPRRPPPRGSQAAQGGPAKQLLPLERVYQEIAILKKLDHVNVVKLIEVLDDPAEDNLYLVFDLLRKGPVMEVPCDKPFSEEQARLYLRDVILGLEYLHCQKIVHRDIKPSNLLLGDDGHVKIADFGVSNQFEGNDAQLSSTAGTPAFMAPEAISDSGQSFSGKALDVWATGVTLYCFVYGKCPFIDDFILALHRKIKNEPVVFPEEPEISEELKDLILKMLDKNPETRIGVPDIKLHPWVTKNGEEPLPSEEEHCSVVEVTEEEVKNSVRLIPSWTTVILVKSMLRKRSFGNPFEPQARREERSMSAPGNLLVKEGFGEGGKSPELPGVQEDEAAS
# T10 sequence (P45984 whole entry): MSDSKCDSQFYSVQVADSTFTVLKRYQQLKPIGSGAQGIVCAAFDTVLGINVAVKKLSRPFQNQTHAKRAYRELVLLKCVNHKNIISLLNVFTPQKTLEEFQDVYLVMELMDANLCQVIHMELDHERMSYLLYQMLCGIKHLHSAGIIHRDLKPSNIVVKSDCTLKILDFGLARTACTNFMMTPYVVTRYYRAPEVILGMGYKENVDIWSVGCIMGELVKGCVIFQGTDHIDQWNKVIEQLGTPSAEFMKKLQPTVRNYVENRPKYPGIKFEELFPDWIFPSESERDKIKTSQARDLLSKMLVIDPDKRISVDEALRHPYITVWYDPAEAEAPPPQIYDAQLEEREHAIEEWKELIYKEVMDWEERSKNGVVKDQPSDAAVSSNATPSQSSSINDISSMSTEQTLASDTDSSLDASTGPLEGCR
# T28 sequence (O14733 whole entry): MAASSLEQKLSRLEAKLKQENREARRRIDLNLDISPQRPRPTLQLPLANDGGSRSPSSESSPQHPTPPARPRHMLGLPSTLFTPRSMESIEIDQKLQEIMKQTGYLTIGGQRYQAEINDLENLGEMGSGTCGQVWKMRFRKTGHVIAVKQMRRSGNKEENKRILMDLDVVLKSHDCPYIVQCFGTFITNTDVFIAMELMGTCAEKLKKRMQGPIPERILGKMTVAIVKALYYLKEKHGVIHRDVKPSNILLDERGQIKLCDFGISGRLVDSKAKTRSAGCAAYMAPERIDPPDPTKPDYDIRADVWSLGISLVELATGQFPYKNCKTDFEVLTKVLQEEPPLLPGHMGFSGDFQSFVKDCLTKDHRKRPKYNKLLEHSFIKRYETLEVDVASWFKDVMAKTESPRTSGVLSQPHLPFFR
# T22 sequence (O15111 whole entry): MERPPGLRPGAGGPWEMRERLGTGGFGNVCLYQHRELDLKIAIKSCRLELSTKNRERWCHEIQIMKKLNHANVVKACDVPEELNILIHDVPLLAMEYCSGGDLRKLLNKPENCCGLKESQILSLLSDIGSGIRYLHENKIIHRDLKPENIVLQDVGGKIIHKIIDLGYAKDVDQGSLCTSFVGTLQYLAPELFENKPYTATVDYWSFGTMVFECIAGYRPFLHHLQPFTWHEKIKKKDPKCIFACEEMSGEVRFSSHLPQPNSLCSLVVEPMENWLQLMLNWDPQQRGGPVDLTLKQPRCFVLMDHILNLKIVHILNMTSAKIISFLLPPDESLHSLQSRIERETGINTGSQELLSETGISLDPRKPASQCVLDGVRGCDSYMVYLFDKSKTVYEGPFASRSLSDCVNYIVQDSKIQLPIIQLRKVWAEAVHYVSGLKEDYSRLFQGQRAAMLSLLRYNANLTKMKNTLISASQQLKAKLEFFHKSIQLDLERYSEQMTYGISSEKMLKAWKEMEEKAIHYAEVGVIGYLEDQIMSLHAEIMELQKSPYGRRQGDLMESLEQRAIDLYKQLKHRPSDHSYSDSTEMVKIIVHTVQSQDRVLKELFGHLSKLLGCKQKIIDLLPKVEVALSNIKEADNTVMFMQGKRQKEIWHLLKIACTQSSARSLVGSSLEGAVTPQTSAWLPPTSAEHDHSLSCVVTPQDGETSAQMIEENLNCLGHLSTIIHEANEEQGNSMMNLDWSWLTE
# T5 sequence (P51812 422-679 limits assumed): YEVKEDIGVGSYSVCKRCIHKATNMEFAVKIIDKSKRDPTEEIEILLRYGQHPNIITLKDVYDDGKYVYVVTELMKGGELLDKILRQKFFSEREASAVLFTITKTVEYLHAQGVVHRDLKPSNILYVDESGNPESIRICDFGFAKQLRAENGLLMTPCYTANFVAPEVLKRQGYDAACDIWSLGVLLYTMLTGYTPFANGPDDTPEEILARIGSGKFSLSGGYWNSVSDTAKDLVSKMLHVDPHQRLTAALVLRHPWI
# T15 sequence (P36507 whole entry): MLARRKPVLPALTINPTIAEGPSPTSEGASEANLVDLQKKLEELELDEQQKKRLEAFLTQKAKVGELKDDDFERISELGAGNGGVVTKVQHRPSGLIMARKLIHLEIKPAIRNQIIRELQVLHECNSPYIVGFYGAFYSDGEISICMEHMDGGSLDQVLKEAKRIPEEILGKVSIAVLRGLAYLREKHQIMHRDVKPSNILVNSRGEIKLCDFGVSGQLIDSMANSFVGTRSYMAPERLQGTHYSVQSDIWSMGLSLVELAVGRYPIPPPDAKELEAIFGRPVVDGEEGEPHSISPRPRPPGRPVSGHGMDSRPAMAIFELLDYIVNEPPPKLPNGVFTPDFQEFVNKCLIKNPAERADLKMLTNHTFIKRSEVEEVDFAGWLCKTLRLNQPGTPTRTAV
# T24 sequence (Q9NYL2 whole entry): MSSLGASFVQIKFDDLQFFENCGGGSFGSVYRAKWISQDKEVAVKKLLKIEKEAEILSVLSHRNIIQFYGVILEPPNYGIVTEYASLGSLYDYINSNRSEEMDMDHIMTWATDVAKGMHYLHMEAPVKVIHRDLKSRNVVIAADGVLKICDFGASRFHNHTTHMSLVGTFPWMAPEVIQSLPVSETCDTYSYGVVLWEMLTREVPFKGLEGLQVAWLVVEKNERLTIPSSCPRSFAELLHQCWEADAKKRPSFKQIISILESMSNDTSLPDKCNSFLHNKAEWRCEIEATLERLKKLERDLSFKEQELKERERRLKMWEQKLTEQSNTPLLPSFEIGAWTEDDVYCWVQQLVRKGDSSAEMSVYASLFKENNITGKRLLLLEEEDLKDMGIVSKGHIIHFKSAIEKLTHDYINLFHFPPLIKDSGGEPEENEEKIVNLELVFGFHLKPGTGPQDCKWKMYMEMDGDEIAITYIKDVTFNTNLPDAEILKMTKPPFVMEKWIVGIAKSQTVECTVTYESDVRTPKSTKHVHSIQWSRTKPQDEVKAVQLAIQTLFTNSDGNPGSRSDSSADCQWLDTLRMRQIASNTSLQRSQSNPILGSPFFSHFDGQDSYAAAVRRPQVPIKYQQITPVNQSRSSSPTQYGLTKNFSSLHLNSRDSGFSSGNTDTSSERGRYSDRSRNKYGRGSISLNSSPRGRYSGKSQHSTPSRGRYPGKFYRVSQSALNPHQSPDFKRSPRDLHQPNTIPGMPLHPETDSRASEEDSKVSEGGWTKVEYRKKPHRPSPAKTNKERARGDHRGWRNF
# T26 sequence (P51812 68-327 limits assumed): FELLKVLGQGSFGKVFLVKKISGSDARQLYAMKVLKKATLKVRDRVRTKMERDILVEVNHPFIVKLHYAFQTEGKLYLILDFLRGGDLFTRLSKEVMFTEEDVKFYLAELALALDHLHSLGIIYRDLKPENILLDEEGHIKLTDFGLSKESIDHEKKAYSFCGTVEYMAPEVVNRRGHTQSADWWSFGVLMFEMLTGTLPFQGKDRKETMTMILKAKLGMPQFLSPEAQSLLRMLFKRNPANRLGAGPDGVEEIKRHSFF
# T14 sequence (P10635 whole entry, species assumed): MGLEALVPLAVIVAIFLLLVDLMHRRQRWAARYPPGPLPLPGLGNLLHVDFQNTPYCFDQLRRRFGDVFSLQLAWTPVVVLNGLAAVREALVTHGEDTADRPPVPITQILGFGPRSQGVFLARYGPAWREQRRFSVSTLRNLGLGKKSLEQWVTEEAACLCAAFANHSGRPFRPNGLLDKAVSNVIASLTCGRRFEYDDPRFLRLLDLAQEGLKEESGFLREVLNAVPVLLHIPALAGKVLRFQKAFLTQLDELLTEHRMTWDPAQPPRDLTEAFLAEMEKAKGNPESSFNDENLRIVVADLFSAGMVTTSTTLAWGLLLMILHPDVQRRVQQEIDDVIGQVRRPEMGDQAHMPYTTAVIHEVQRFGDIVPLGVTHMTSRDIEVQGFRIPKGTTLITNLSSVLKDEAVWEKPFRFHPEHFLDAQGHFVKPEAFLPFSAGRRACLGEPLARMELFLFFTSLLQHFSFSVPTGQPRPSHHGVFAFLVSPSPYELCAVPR
smiles,measurement,setting,value
"Cc1cn(CCN2CCN(c3ccccc3-c3cc(C#N)cc(C(=O)NCCCN4CCCC4)c3)CC2)c2ccccc12 [LLY-507, 3-cyano-5-{2-[4-[2-(3-methylindol-1-yl)ethyl]piperazin-1-yl]-phenyl}-N-[(3-pyrrolidin-1-yl)propyl]benzamide]",IC50,[1],> 20 µM
same,IC50,[2],> 20 µM
same,IC50,[3],> 20 µM
same,IC50,[4],> 20 µM
same,IC50,[5],> 20 µM
same,IC50,[6],> 10 µM
same,IC50,[7],> 20 µM
same,IC50,[8],> 20 µM
same,IC50,[9],> 20 µM
same,IC50,[10],> 20 µM
same,IC50,[11],> 10 µM
same,IC50,[12],> 20 µM
same,IC50,[13],> 20 µM
same,IC50,[14],> 20 µM
same,% inhibition @ 10 μM,[15],61.2%
same,IC50,[16],> 20 µM
same,IC50,[17],> 20 µM
same,IC50,[18],> 20 µM
same,IC50,[19],> 20 µM
same,IC50,[20],> 20 µM
same,IC50,[21],> 20 µM
same,IC50,[22],> 20 µM
same,IC50,[23],> 20 µM
same,IC50,[24],> 10 µM
same,IC50,[25],> 20 µM
same,IC50,[26],> 20 µM
same,IC50,[27],> 20 µM
same,IC50,[28],> 10 µM
same,IC50,[29],> 20 µM
same,IC50,[30],> 20 µM
same,IC50,[31],> 20 µM
